The METLIN SMRT retention time set (Domingo-Almenara et al. 2019)

Assay: gradient 5% acetonitrile 3 min, to 50% in 2 min, to 85% in 15 min, held 3 min, 100 µL/min
Conditions: column: Zorbax Extend-C18 2.1 x 50 mm; eluents: water / acetonitrile, 0.1% formic acid
Method in brief: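 Each retention time is based on an adduct peak selected computationally and verified by manual inspection. Measurements used HPLC–quadrupole time-of-flight mass spectrometry in positive and negative ionization mode on mixtures of ~100 pure standards. Chromatography ran on a Zorbax Extend-C18 column (2.1 × 50 mm, 1.8 μm) at 100 μL/min with water and acetonitrile, each containing 0.1% formic acid, and dead and dwell volumes of 40 μL and 900 μL.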

RP-LC retention time [s] | Compound
551 | COc1ccc(C(=O)NCCc2cn3cccc(C)c3n2)c(OC)c1
491 | CCC(=O)Nc1cnc2c(c1)CCC2
711 | O=C(O)c1nnn(-c2ccc3c(c2)CCC3)c1-c1cccnc1
919 | CN(Cc1ccco1)C(=O)Cn1cccc1-c1nnc(-c2ccccc2)o1
578 | O=C(c1cnn(-c2ccccc2)n1)N1CC(c2nc3ccccc3[nH]2)C1
649 | O=C(CSc1nc2ncccc2[nH]1)Nc1ccccc1C(F)(F)F
816 | Cc1noc(C2CN(C(=O)Nc3ccc(C)c(Cl)c3)CC23CCOCC3)n1 (configuration not stated)
922 | CSc1cccc(NC(=O)N(C)CCc2noc(-c3ccc(F)cc3)n2)c1
627 | COCCCNC(=O)C1CCN(S(=O)(=O)c2ccc3c(c2)NC(=O)CO3)CC1
868 | Cc1ccc(NC(=O)C2CCCN(c3ncnc4c3oc3ccccc34)C2)cc1C (configuration not stated)
671 | CCc1cccc(C)c1NC(=O)C1CCN(S(C)(=O)=O)c2cc(C)ccc2O1 (configuration not stated)
1270 | Cc1cc(C)c(S(=O)(=O)N2CCCC2c2nc(-c3cccc(F)c3)no2)c(C)c1 (configuration not stated)
713 | Cc1ccc2c(=O)c(C(=O)N3CCOCC3)cn(CC(=O)NCCC3=CCCCC3)c2n1
639 | O=C1NCCCn2cc(S(=O)(=O)Nc3ccc(F)cc3)cc21
722 | CC(NC(=O)c1cc(-c2ccc(F)cc2)cn1C)c1ccccn1 (configuration not stated)
733 | Cc1ccc(S(=O)(=O)NC(=O)NC2=NC(C)(C)N(c3ccc(Cl)c(Cl)c3)C(N)=N2)cc1
867 | COc1cccc(CNC(=O)C2(c3ccc(NS(C)(=O)=O)cc3)CCCCC2)c1
710 | COCCn1nc2n(c1=O)CCC1(CC2)CCN(C(=O)C2CCCCCC2)CC1
681 | CCOC(=O)CCNC(=O)N1CCC(N2CCN(Cc3ccc(C)cc3)C(=O)C2=O)CC1
771 | Cc1ccc(C)c(NC(=O)N2CCC(OC3CCN(S(C)(=O)=O)CC3)CC2)c1
718 | COc1ccccc1C(=O)NCCc1nc2cccnc2n1C(C)C
734 | CC(C)(CO)NC(=O)Cc1ccc(NC(=O)C2(c3ccc(F)cc3)CC2)cc1
848 | CC1Oc2ccc(S(=O)(=O)N3CCC(C(=O)N4CCN(c5ccccc5)CC4)CC3)cc2NC1=O (configuration not stated)

RP-LC retention time [s] | Compound
826 | CCN(Cc1ccccc1)c1ccc(-c2noc(CN3CCOCC3)n2)cn1
704 | CCNC(=O)Nc1ccc2c(c1)CN(S(=O)(=O)c1cnn(CC)c1)CCO2
847 | O=C(c1cc(F)ccc1Cl)N1CCN(c2cc(-c3ccc(F)cc3)[nH]n2)CC1
783 | COc1ccc(S(=O)(=O)N2CCC(n3cnnc3-c3ccccc3)CC2)cc1
627 | O=C(NCc1ccccc1)C1(CCO)CC12CCOCC2 (configuration not stated)
708 | CC(=O)NCc1csc(C2CCN(C(=O)COc3ccc(Cl)cc3)CC2)n1
613 | CC(=O)N1CCc2cc(N3CC(C(=O)NC(C)C)CC3=O)ccc21 (configuration not stated)
1030 | COc1ccc(-c2nc(Cc3noc(-c4cccc(OC)c4)n3)c(C)o2)cc1
623 | CCNc1nc(NCC)n2c(SCC(=O)Nc3ccccc3[N+](=O)[O-])nnc2n1
893 | Cc1ccc(CNC(=O)C2(C)CN(S(C)(=O)=O)CC(=O)N2c2cccc(Cl)c2C)cc1 (configuration not stated)
593 | Cc1ccc(CN2CCC(c3nc(-c4cnccn4)n[nH]3)CC2)c(C)c1
709 | O=C(NCc1ccccn1)C1c2ccccc2C(=O)N(C2CCCC2)C1c1cccs1 (configuration not stated)
741 | Nc1nc(N)c(-c2cccc(C(F)(F)F)c2)c(Cc2cccc(C(F)(F)F)c2)n1
713 | Cc1cc(C)cc(NC(=O)Cn2cnc3nc(N4CCC(C(=O)NC5CC5)CC4)sc3c2=O)c1
911 | CC(C)n1c(=O)oc2cc(-c3noc(CNC(=O)Cc4ccc(Cl)cc4)n3)ccc21
675 | COc1cccc(COc2cn(C)c(C(=O)Nc3ccc4c(c3)OCCO4)cc2=O)c1
1250 | Cc1cccc(OCc2nc(-c3ccc(-c4csc(C)n4)cc3)no2)c1
665 | Cc1ccc(-c2cc3c(=O)n(Cc4noc(CN5CCN(C(C)C)CC5)n4)ccn3n2)cc1
879 | COC(=O)c1c(NCc2ccccc2C(F)(F)F)c2cccc(Cl)c2[nH]c1=O
749 | O=C(NCc1ccco1)c1ccc2c(c1)C(=O)c1ccccc1-2
942 | Cn1cc(SCC(=O)N2CCCc3ccccc32)c2ccccc21
909 | COc1ccc(CC(=O)N2CCc3cc(-c4ccno4)ccc32)cc1
957 | O=C(O)COC(=O)Cc1ccccc1Nc1c(Cl)cccc1Cl

RP-LC retention time [s] | Compound
555 | CCn1c(=O)c(C(=O)NCc2cccnc2)nc2cccnc21
738 | CC(C)C(=O)NC(Cc1ccccc1)c1nnc(N2CCSCC2)o1 (configuration not stated)
849 | COc1cccc(-c2noc(C3CCCN3C(=O)Nc3cc(OC)ccc3OC)n2)c1 (configuration not stated)
568 | COc1ccccc1CN1CN=C(Nc2nc(C)c3ccc(C)cc3n2)NC1
679 | CCN(CC)c1nc(C(=O)Nc2ccc(C(C)=O)cc2)nc2nc(C)cc(C)c12
604 | CCN1CCCC1CN(CC(=O)N1CCNCC1)S(=O)(=O)c1ccc(C(C)C)cc1 (configuration not stated)
592 | CCN1CCN(CCCNC(=O)C2CCCN(c3nnc(-n4c(C)ccc4C)s3)C2)CC1 (configuration not stated)
751 | CCS(=O)(=O)N1CCCN(C2=NS(=O)(=O)C(c3ccccc3)=C2C)CC1
865 | CCCOc1nn(CCC)cc1C(=O)Nc1nccs1
952 | CCCN1C(=O)c2cc(S(=O)(=O)NCc3ccco3)ccc2Oc2cccnc21
841 | O=C(NCC1CCCO1)c1cc(-c2cccs2)nc2ccccc12 (configuration not stated)
579 | CCN1CCN(c2cc(C)c3cc(NC(=O)C4CCCCC4)ccc3n2)CC1
576 | CCn1ccc(C(=O)N2CCC(n3c(C)cnc3C3CCC3)C2)n1 (configuration not stated)
809 | CC(OC(=O)Nc1cccc(Cl)c1)C(=O)O (configuration not stated)
1170 | COc1ccc(NC(=O)c2noc3c2CCCC3)c(OC)c1
941 | Cc1cccc(N2CCN([C@H]3CS(=O)(=O)C[C@@H]3S(=O)(=O)c3ccc(F)cc3)CC2)c1
1090 | COc1cccc(-c2nnc(Cc3nc(-c4cccc(Cl)c4)no3)o2)c1
1210 | COc1ccc(-c2nnc(-c3ccc(Cl)c(S(=O)(=O)N4CCCCCC4)c3)o2)cc1
584 | Cc1cc(C)cc(C(=O)N2CCc3nc[nH]c3C2)c1
774 | CCOc1ccc(CNC(=O)c2ccc3c(c2)N(C)C(=O)C2CCCCN32)cc1OC (configuration not stated)
1010 | CCOC(=O)c1noc2ncnc(Nc3ccccc3C)c12
